Laboratory results from US10940188B2, “Compounds and methods for treatment and prevention of Flavivirus infection” (priority 2016, dated 2021).
Like-named read-outs stand apart in the source and are kept apart here.

Assays:
[1] = system: ZIKV-induced cell death in hNPCs; test: ATP cell viability assay for ZIKV-induced cell death, hNPCs; type: cell-based, human; conditions: for IC50: Homo sapiens
Protocol: (§1) The reagent was reconstituted and prepared as described by the manufacturer. In order to measure the cell death caused by ZIKV infection, cells were cultured for 16 hours at 37° C. with 5% CO2 in assay plates, followed by the addition of ZIKV solution and incubation at 37° C. with 5% CO2 for 72 hours. ATPlite, the ATP monitoring reagent, was then added to the assay plates and they were incubated for 15 minutes. The resulting luminescence was measured using the ViewLux plate reader (Perkin Elmer). Data were normalized using the wells without cells as a control for 100% cell killing, and cell-containing wells without ZIKV infection were used as full cell viability (0% cell killing).
Human NPCs were seeded onto PDL coated 1536-well assay plates at 250 cells per 3 μl/well and incubated at 37° C. in 5% CO2 for 16 hours. Test compounds dissolved in DMSO were transferred to assay plates at a volume of 23 nl/well by an automated pintool workstation (Wako Automation, San Diego, Calif.). Compounds were incubated with cells for 30 minutes at 37° C. in 5% CO2, immediately followed by the addition of 2 μl/well of ZIKV. Incubation time of compound-treated cells with ZIKV varied based on assay format. Experiments measuring virus-induced caspase 3/7 activity required a 6 hour incubation of ZIKV in the presence compounds at 37° C. in 5% CO2. Following this incubation, 3.5 μl/well of caspase 3/7 reagent mixture was added to assay plates. The plates were incubated for 30 minutes at room temperature, and the resultant luminescence signal was measured using a ViewLux plate reader (Perkin Elmer). Experiments measuring virus-induced cell death required a 72-hour incubation of ZIKV in the presence of compounds at 37° C. in 5% CO2. Following this incubation, 3.5 μl/well of ATP content detection reagent was added to assay plates, incubated for 30 minutes at the room temperature, and the resultant luminescence signal was measured in a ViewLux plate reader.
as §1, with “The ATPlite luminescence assay system assay kit (PerkinElmer) was used to determine cell viability. The reagent” for “The reagent”, “by the manufacture. In order” for “by the manufacturer. In order”, “followed by addition of” for “followed by the addition of”, “plates and incubated for” for “plates and they were incubated for”, “Elmer). Data was normalized using” for “Elmer). Data were normalized using”
Human NPCs were seeded onto PDL coated 1536-well assay plates at 250 cells per 3 μl/well and incubated at 37° C. in 5% CO2 for 16 hours. Test compounds dissolved in DMSO were transferred to assay plates at a volume of 23 nl/well by an automated pintool workstation (Wako Automation, San Diego, Calif.). Compounds were incubated with cells for 30 minutes at 37° C. in 5% CO2, immediately followed by the addition of 2 μl/well of ZIKV. Incubation time of compound-treated cells with ZIKV varied based on assay format. Experiments measuring virus induced caspase 3/7 activity required a 6 hour incubation of ZIKV in the presence compounds at 37° C. in 5% CO2. Following this incubation, 3 μl/well of caspase 3/7 reagent mixture was added to assay plates, incubated for 30 minute at room temperature, and the resultant luminescence signal was measured using a ViewLux plate reader (Perkin Elmer). Experiments measuring the virus induced cell death required a 72 hour incubation of ZIKV in the presence of compounds at 37° C. in 5% CO2. Following this incubation, 3 μl/well of ATP content detection reagent was added to assay plates, incubated for 30 minute at room temperature, and the resultant luminescence signal was measured in a ViewLux plate reader.

[2] = system: ZIKV-induced caspase 3/7 activity in human astrocytes; test: Caspase 3/7 activity assay, ZIKV-infected human astrocytes; type: cell-based; conditions: for IC50: read-out: Caspase 3 (IC50, uM) Astrocyte; for Emax: read-out: Caspase 3 (efficacy, %) Astrocyte
Procedure, shortened: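 Human NPCs, SNB-19 cells or astrocytes seeded 16 h, compound added 30 min before ZIKV, then 6 h infection at 37 °C. Caspase-Glo 3/7 luminescence after 30 min at room temperature, normalized to uninfected cells (0%) and ZIKV-infected cells (100%).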

[3] = system: ZIKV-induced cell death in human astrocytes; test: ATP cell viability assay for ZIKV-induced cell death, human astrocytes; type: cell-based; conditions: for IC50: Astrocyte
[4] = Astrocyte, ZIKV-infected human astrocytes
[5] = ZIKV-infected human astrocytes, read-out: Cell viability (IC50, uM) Astrocyte
[6] = Homo sapiens, following ZIKV infection, read-out: IC50 (μM) for improving cell viability, Astrocytes

Cc1cccc(C#Cc2ccccc2)n1 [MPEP, 2-Methyl-6-(phenylethynyl)pyridine]
Cell viability (efficacy, %) NPCs ([1]; ZIKV-infected hNPCs): 0.0% | IC50 [2, 4]: 5.81 µM | Emax [2, 4]: 118% | Cell viability (efficacy, %) Astrocyte ([3]; ZIKV-infected human astrocytes): 0.0%

O=C1c2ccccc2C(=O)c2c1ccc(O)c2O [Alizarin]
Cell viability (efficacy, %) NPCs ([1]; ZIKV-infected hNPCs): 0.0% | IC50 [2, 4]: 30.8 µM | Emax [2, 4]: 47.9% | Cell viability (efficacy, %) Astrocyte ([3]; ZIKV-infected human astrocytes): 0.0%

COc1cccc(-c2ccc(NC(=O)C3=C(C(=O)O)CCC3)c(F)c2)c1 [Vidofludimus]
Cell viability (efficacy, %) NPCs ([1]; ZIKV-infected hNPCs): 0.0% | IC50 [2, 4]: 2.91 µM | Emax [2, 4]: 101% | Cell viability (efficacy, %) Astrocyte ([3]; ZIKV-infected human astrocytes): 0.0%

O=S(=O)(O)c1ccc2[nH]c(-c3ccccc3)nc2c1 [Ensulizole]
Cell viability (efficacy, %) NPCs ([1]; ZIKV-infected hNPCs): 0.0% | IC50 ([2]; Homo sapiens, Astrocyte): 1.95 µM | Emax ([2]; Homo sapiens, Astrocyte): 82.7% | Cell viability (efficacy, %) Astrocyte ([3]; ZIKV-infected human astrocytes): 0.0%

Cc1cccc(/C=C/c2ccccc2)n1 [SIB 1893]
Cell viability (efficacy, %) NPCs ([1]; ZIKV-infected hNPCs): 0.0% | Caspase 3 (efficacy, %) Astrocyte ([2]; ZIKV-infected human astrocytes): 96.2% | IC50 ([2]; ZIKV-infected human astrocytes): 12.3 µM | Cell viability (efficacy, %) Astrocyte ([3]; ZIKV-infected human astrocytes): 0.0%

C/C1=C2/[N-][C@H]([C@H](CC(N)=O)[C@@]2(C)CCC(=O)NC[C@@H](C)OP(=O)([O-])O[C@H]2[C@@H](O)[C@@H](n3cnc4cc(C)c(C)cc43)O[C@@H]2CO)[C@]2(C)N=C(/C(C)=C3N=C(/C=C4N=C1[C@@H](CCC(N)=O)C\4(C)C)[C@@H](CCC(N)=O)[C@]\3(C)CC(N)=O)[C@@H](CCC(N)=O)[C@]2(C)CC(N)=O.[Co+3].[OH-] [Hydroxocobalamin]
Cell viability (efficacy, %) NPCs ([1]; ZIKV-infected hNPCs): 0.0% | Caspase 3 (efficacy, %) Astrocyte ([2]; ZIKV-infected human astrocytes): 83.4% | IC50 ([2]; ZIKV-infected human astrocytes): 0.97 µM | Cell viability (efficacy, %) Astrocyte ([3]; ZIKV-infected human astrocytes): 0.0%

O=C(Nc1ccc([N+](=O)[O-])cc1Cl)c1cc(Cl)ccc1O [Niclosamide]
IC50 [2, 4]: 1.84 µM | Emax [2, 4]: 96.8% | IC50 [3, 5]: 1.73 µM | IC50 [3, 6]: 1.73 µM | Cell viability (efficacy, %) Astrocyte ([3]; ZIKV-infected human astrocytes): 51.2%

Flurbiprofen axetil
Cell viability (efficacy, %) NPCs ([1]; ZIKV-infected hNPCs): 0.0% | Caspase 3 (efficacy, %) Astrocyte ([2]; ZIKV-infected human astrocytes): 65.5% | IC50 ([2]; ZIKV-infected human astrocytes): 21.8 µM | Cell viability (efficacy, %) Astrocyte ([3]; ZIKV-infected human astrocytes): 0.0%

C[C@H](NC(=O)C(=O)Nc1ccccc1C(C)(C)C)C(=O)N[C@@H](CC(=O)O)C(=O)COc1c(F)c(F)cc(F)c1F [Emricasan]
IC50 ([1]; ZIKV-infected hNPCs, read-out: Cell viability (IC50, uM) NPCs): 3.88 µM | IC50 ([1]; following ZIKV infection, read-out: IC50 (μM) for improving cell viability, hNPCs): 3.88 µM | Cell viability (efficacy, %) NPCs ([1]; ZIKV-infected hNPCs): 54.4% | IC50 [2, 4]: 0.46 µM | Emax [2, 4]: 77.1% | IC50 [3, 5]: 4.11 µM | IC50 [3, 6]: 4.11 µM | Cell viability (efficacy, %) Astrocyte ([3]; ZIKV-infected human astrocytes): 98.7%

Nc1nc2ccc([N+](=O)[O-])cc2s1 [2-Amino-6-nitrobenzothiazole]
Cell viability (efficacy, %) NPCs ([1]; ZIKV-infected hNPCs): 0.0% | IC50 [2, 4]: 39.8 µM | Emax [2, 4]: 54.1% | Cell viability (efficacy, %) Astrocyte ([3]; ZIKV-infected human astrocytes): 0.0%

O=C(O)c1ccccc1Nc1cccc(C(F)(F)F)c1 [Flufenamic acid]
Cell viability (efficacy, %) NPCs ([1]; ZIKV-infected hNPCs): 0.0% | IC50 [2, 4]: 8.69 µM | Emax [2, 4]: 71.9% | Cell viability (efficacy, %) Astrocyte ([3]; ZIKV-infected human astrocytes): 0.0%

O=C(O)CCC(=O)c1ccc(-c2ccccc2)cc1 [Fenbufen]
Cell viability (efficacy, %) NPCs ([1]; ZIKV-infected hNPCs): 0.0% | IC50 [2, 4]: 21.8 µM | Emax [2, 4]: 81.5% | Cell viability (efficacy, %) Astrocyte ([3]; ZIKV-infected human astrocytes): 0.0%

Cc1cc(O)c2c(c1)C(=O)c1cc(O)cc(O)c1C2=O [Emodin]
Cell viability (efficacy, %) NPCs ([1]; ZIKV-infected hNPCs): 0.0% | IC50 [2, 4]: 3.27 µM | Emax [2, 4]: 86.4% | Cell viability (efficacy, %) Astrocyte ([3]; ZIKV-infected human astrocytes): 0.0%

O=C1NC(=O)/C(=C/c2ccc(-c3ccc(F)cc3O)o2)S1 [AS-252424]
Cell viability (efficacy, %) NPCs ([1]; ZIKV-infected hNPCs): 0.0% | Caspase 3 (efficacy, %) Astrocyte ([2]; ZIKV-infected human astrocytes): 37.5% | IC50 ([2]; ZIKV-infected human astrocytes): 1.73 µM | Cell viability (efficacy, %) Astrocyte ([3]; ZIKV-infected human astrocytes): 0.0%
